According to publication PMC5834442, “Identifying inhibitors of the Leishmania inositol phosphorylceramide synthase with antiprotozoal activity using a yeast-based assay and ultra-high throughput screening platform” (Scientific Reports, 2018):
Like-named read-outs stand apart in the source and are kept apart here.

Legend:
[1] = system: L. donovani (MHOM/SD/62/1S-CL2D, LdBOB) axenic amastigotes; assay: Leishmania donovani axenic amastigote dose response assay (resazurin); type: cell-based; conditions: -logIC50 mol against L. donovani (LdBOB) axenic amastigotes, read-out: pIC50 Axenic (converted)
[2] = system: HepG2 cells; assay: Mammalian cell cytotoxicity assay (CellTiter-Glo); type: cell-based, human; conditions: for IC50: Homo sapiens, -logIC50 mol against HepG2, read-out: PIC50 HepG2 (converted)
[3] = selectivity: pIC50 axenic minus pIC50 HepG2
[4] = selectivity, pIC50 axenic minus pIC50 HepG2

Structure (SMILES) | IC50 [1] | IC50 [2] | pSI v HepG2 [2, 3] | pSI v HepG2 [2, 4] | pSI v HepG2 [2]
Cc1ccc(-c2ccnc(-c3ccc(O)cc3)n2)cc1 [SC/128042] | 6.61 µM | > 100 µM | 1.18 | – | –
O=C(Nc1nc2ccc([N+](=O)[O-])cc2s1)c1cc(Cl)sc1Cl [ST/489542] | 1.29 µM | 10 µM | 0.89 | – | –
O=C(Nc1ccc2ncsc2c1)c1ccc(Br)s1 [ST/1280764] | 6.92 µM | > 100 µM | 1.16 | – | –
O=C(Nc1nnc(-c2ccccc2)o1)c1ccc2c(c1)CCCC2 [ST/912241] | 1.23 µM | > 100 µM | – | 1.91 | –
Cc1[nH]c2ccccc2c(=O)c1Cc1ccc(OC(F)(F)F)cc1 [4598W 92C*A] | 1.55 µM | 95.5 µM | 1.79 | – | –
O=C(Nc1ccccc1Cl)C(=Cc1cccc(F)c1)C(=O)Nc1ccccc1Cl [ST/786453] | 0.204 µM | 6.76 µM | 1.52 | – | –
Clc1cccc(Nc2nc(-c3ccncc3)cs2)c1 [ST/755059] | 6.76 µM | 32.4 µM | 0.68 | – | –
CC1(C)CCC(=Cc2ccc(Cl)cc2)CC1(O)Cn1ccnc1 (centres unmarked) [ST/1098001] | 5.5 µM | 46.8 µM | 0.93 | – | –
COc1ccc(N(Cc2ccc(-c3ccccc3)o2)S(=O)(=O)c2ccccn2)cc1 [AD102638-200A3B22] | 5.89 µM | 61.7 µM | 1.02 | – | –
Cc1[nH]c2ccccc2c(=O)c1Cc1ccc(C(F)(F)F)cc1 [4671W 92C*A] | 1.17 µM | > 100 µM | 1.93 | – | –
Cc1cccc2sc(N(Cc3cccnc3)C(=O)C3CCCCC3)nc12 [ST/712281] | 3.16 µM | 85.1 µM | 1.43 | – | –
O=C(Nc1nnc(C(F)(F)F)s1)c1ccc(Cl)cc1 [ST/570135] | 3.47 µM | 16.2 µM | 0.67 | – | –
COc1ccccc1-c1nn(-c2c(C)cccc2C)c2[nH]c(=O)cc(C(F)(F)F)c12 [ST/1471361] | 7.94 µM | > 100 µM | 1.10 | – | –
N#Cc1nc(-c2ccccc2)oc1S(=O)(=O)c1ccc(Br)cc1 [ST/1197083] | 0.363 µM | 60.3 µM | 2.22 | – | –
Cc1ccc(S(=O)(=O)Nc2cc(Cl)c(Cl)cc2Cl)cc1 [ST/411835] | 7.08 µM | > 100 µM | 1.15 | – | –
CNS(=O)(=O)c1ccc(C)c(Nc2nccc(-c3sc(C)nc3-c3ccccc3)n2)c1 [N6896-96-B1] | 0.661 µM | 38 µM | 1.76 | – | –
C=CCOc1ccc(-c2nc(-c3ccc4c(c3)CCNCC4)no2)cc1Cl.Cl [N11110-83-1] | 7.94 µM | 4.37 µM | -0.26 | – | –
O=[N+]([O-])c1ccc(NS(=O)(=O)c2ccccc2)c(-c2ccccc2)c1 [VDPP/14/72/1] | 5.01 µM | 35.5 µM | – | 0.85 | –
O=C(Nc1nnc(C(F)(F)F)s1)c1ccc([N+](=O)[O-])c(Cl)c1 [ST/640830] | 2.95 µM | 25.7 µM | 0.94 | – | –

Structure (SMILES) | IC50 [1] | IC50 [2] | pSI v HepG2 [2, 3] | pSI v HepG2 [2, 4] | pSI v HepG2 [2]
COc1cc([N+](=O)[O-])ccc1NC(=O)Nc1ccc(OC(F)(F)F)cc1 [ST/871026] | 6.92 µM | 13.2 µM | – | 0.28 | –
Cc1ccccc1C(=O)N(Cc1cccnc1)c1nc2c(F)cccc2s1 [ST/1131244] | 8.13 µM | 52.5 µM | 0.81 | – | –
O=C(Nc1cccc(Cl)c1)Nc1ccc2nnsc2c1 [SC/98031] | 6.61 µM | 17.8 µM | 0.43 | – | –
OC(Cn1ccnc1)(c1ccc(Cl)cc1Cl)C1CCCCC1 (centres unmarked) [CJL/479/3] | 5.75 µM | 45.7 µM | 0.90 | – | –
CCCc1cc(=O)[nH]c(Nc2cc(Cl)cc(Cl)c2)n1 [ST/826453] | 8.91 µM | 14.1 µM | – | 0.20 | –
O=C(Nc1ccc(Cl)c(Cl)c1)Nc1ccc(F)c([N+](=O)[O-])c1 [ST/1276812] | 3.55 µM | 10 µM | 0.45 | – | –
N#Cc1ccccc1Cn1cc(C(=O)c2ccccc2)c2ccccc21 [ST/1274537] | 3.55 µM | > 100 µM | – | – | 1.45
OCc1ccn2nc(-c3ccc(F)cc3)c(-c3ccncc3)c2c1 [U11871/14/3] | 1.91 µM | > 100 µM | – | 1.72 | –
Cc1ccc(NC(=O)Nc2ccc(Cl)c([N+](=O)[O-])c2)cc1 [ST/875327] | 9.55 µM | 22.9 µM | – | 0.38 | –
Clc1ccc(Cn2nnc(-c3ccc(CN4CCOCC4)cc3)n2)cc1 [ST/852088] | 3.24 µM | > 100 µM | – | 1.49 | –
Oc1ccc(-c2nccc(-c3ccc(Cl)cc3)n2)cc1 [SC/101464] | 2.75 µM | > 100 µM | 1.56 | – | –
C=CCSc1nsc(NC(=O)Nc2ccc(Cl)cc2C(F)(F)F)n1 [ST/566960] | 0.501 µM | 23.4 µM | 1.67 | – | –
Cc1cc([N+](=O)[O-])ccc1NC(=O)Nc1cccc(F)c1 [SC/109683] | 3.8 µM | 13.2 µM | – | – | 0.54
O=C(Nc1ccc2scnc2c1)c1ccc(Cl)s1 [ST/1127597] | 6.46 µM | 97.7 µM | 1.18 | – | –
CC1CSC(N(C(=O)Cn2cnnn2)c2ccc(Cl)cc2)=N1 (centres unmarked) [ST/811532] | > 50 µM | – | – | – | –
Cc1ccc(-c2nc3ccccc3[nH]2)cc1NC(=O)c1cc2ccccc2o1 [ST48766-047X8] | 11.7 µM | – | – | – | –
c1ccc(N2CCN(c3ncc(-c4cccs4)cn3)CC2)nc1 [SC/89927] | > 50 µM | – | – | – | –
O=S(=O)(Nc1c(F)cccc1C(F)(F)F)c1ccc(-c2ccccc2F)s1 [DJ107456-080A211] | 26.9 µM | – | – | – | –
O=C(NNC(=O)c1c(O)c2ccccc2[nH]c1=O)c1ccc(Cl)cc1Cl [SC/110880] | > 50 µM | – | – | – | –
